From PubChem BioAssay (NCI)
Values joined by “and” are separate entries in the source; they are usually repeats but may differ in a detail not shown here. Equal entries are not always repeated.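 Dose response: 5 concentrations. Exposure: 48 h. Format: 96-well plates. Endpoint: linear interpolation; highest concentration if not reached. Here, GI50 denotes the concentration required for 50% inhibition of growth. TGI: concentration producing complete growth inhibition.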

Experiments:
Test in all cases: DTP human tumour cell line panel, 48 h
[1] = tested on: COLO 205 colon
[2] = tested on: HOP-92 NSCLC
[3] = tested on: IGROV1 ovarian
[4] = tested on: MCF7 breast
[5] = tested on: SK-MEL-2 melanoma
[6] = tested on: SK-OV-3 ovarian
[7] = tested on: T-47D breast
[8] = tested on: UO-31 renal
[9] = tested on: HL-60(TB) leukemia
[10] = tested on: NCI-H522 lung

## O=C1C(Nc2ccc(Cl)cc2)=C(I)C(=O)c2ncccc21
[1]
  GI50: 1.32 µM
  TGI: 2.79 µM
[2]
  GI50: 1.43 µM
  TGI: 2.9 µM
[3]
  GI50: 0.359 µM
  TGI: 1.41 µM
[4]
  GI50: 0.289 µM
  TGI: 1.16 µM
[5]
  GI50: 1.55 µM
  TGI: 3.03 µM
[6]
  GI50: 4.28 µM
  TGI: 18 µM
[7]
  GI50: 1 µM
  TGI: 3.54 µM
[8]
  GI50: 0.473 µM
  TGI: 1.74 µM

## Cc1cc(NC(=O)NC(=O)c2ccccc2NC(=O)C(C)N)ccc1Oc1ncc(Br)cn1 (centres undefined)
[1]
  TGI: 0.852 µM
[9]
  TGI: 0.558 µM
[2]
  TGI: 25.6 µM
[3]
  TGI: 29.7 µM
[4]
  TGI: 58.2 µM
[10]
  TGI: 0.334 µM
[5]
  TGI: 6.58 µM
[6]
  TGI: 15.9 µM
[7]
  TGI: 29.6 µM
[8]
  TGI: 26.9 µM

## O=C(Nc1ccc(Br)cc1F)c1cc(I)ccc1O
[1]
  GI50: 12.8 µM
  TGI: 30.8 µM
[9]
  GI50: 2.13 µM
  TGI: 4.79 µM
[2]
  GI50: 1.08 µM
  TGI: 4.8 µM
[3]
  GI50: 1.95 µM
  TGI: > 100 µM
[4]
  GI50: 1.97 µM
  TGI: > 100 µM
[10]
  GI50: 2.11 µM
  TGI: 7.16 µM
[5]
  GI50: 2 µM
  TGI: 5.71 µM
[6]
  GI50: 2.13 µM
  TGI: 7.95 µM
[7]
  GI50: 1.92 µM
  TGI: 6.35 µM
[8]
  GI50: 1.52 µM
  TGI: 7.51 µM

## COc1ccc2c(CN3CCCC[C@H]3C(=O)O)cc3cc4c(cc3c2c1)OCO4
[1]
  GI50: 0.494 µM
  TGI: 2.88 µM
[2]
  GI50: 1.86 µM
  TGI: 5.19 µM
[4]
  GI50: 0.366 µM
  TGI: 2.8 µM
[6]
  GI50: 3.25 µM
  TGI: 23.1 µM
[7]
  GI50: 2.05 µM
  TGI: 8.04 µM

## NC(=O)N/N=C1/CCC(O)CC1CC(=O)O (centres undefined)
[1]
  TGI: > 100 µM
[9]
  TGI: 31.9 µM
[2]
  TGI: > 100 µM
[3]
  TGI: > 100 µM
[4]
  TGI: > 100 µM
[10]
  TGI: > 100 µM
[5]
  TGI: > 100 µM
[6]
  TGI: > 100 µM
[7]
  TGI: > 100 µM
[8]
  TGI: > 100 µM

## Cn1ncnc1[C@H]1c2n[nH]c(=O)c3cc(F)cc(c23)N[C@@H]1c1ccc(F)cc1
[1]
  GI50: > 100 µM
  TGI: > 100 µM
[9]
  GI50: 10.3 µM
  TGI: > 100 µM
[2]
  TGI: > 100 µM
[3]
  GI50: 74.1 µM
  TGI: > 100 µM
[4]
  GI50: 0.701 µM
  TGI: > 100 µM
[10]
  GI50: > 100 µM
  TGI: > 100 µM
[5]
  GI50: > 100 µM
  TGI: > 100 µM
[6]
  GI50: > 100 µM
  TGI: > 100 µM
[7]
  GI50: > 100 µM
  TGI: > 100 µM
[8]
  GI50: 6.5 µM
  TGI: > 100 µM

## O=C1CCCCCCCCCCC1CN1CCCC1 (centres undefined)
[1]
  TGI: 51.9 µM
[9]
  TGI: > 100 µM
[3]
  TGI: > 100 µM
[4]
  TGI: 50.3 µM
[10]
  TGI: > 100 µM
[5]
  TGI: 99.7 µM
[6]
  TGI: > 100 µM
[7]
  TGI: > 100 µM
[8]
  TGI: > 100 µM

## Cc1ccc(S(=O)(=O)c2c(COC(=O)c3cccc(C)c3)c(-c3ccccc3)nn2C)cc1
[1]
  GI50: > 100 µM
  TGI: > 100 µM
[9]
  GI50: > 100 µM
  TGI: > 100 µM
[2]
  GI50: > 100 µM
  TGI: > 100 µM
[3]
  GI50: > 100 µM
  TGI: > 100 µM
[4]
  GI50: > 100 µM
  TGI: > 100 µM
[10]
  GI50: > 100 µM
  TGI: > 100 µM
[6]
  GI50: > 100 µM
  TGI: > 100 µM
[7]
  GI50: 8.53 µM
  TGI: > 100 µM
[8]
  GI50: > 100 µM
  TGI: > 100 µM

## O=C1Nc2ccc(Br)cc2C1=Nc1cccnc1
[1]
  TGI: > 100 µM
[9]
  TGI: 48.8 µM
[2]
  TGI: > 100 µM
[3]
  TGI: 60.7 µM
[4]
  TGI: 59.3 µM
[10]
  TGI: 29.5 µM
[5]
  TGI: 57.2 µM
[6]
  TGI: > 100 µM
[7]
  TGI: 52.7 µM
[8]
  TGI: 29.7 µM

## CSC1=C(N)C(=O)c2[nH]cc(CO)c2C1=N
[1]
  GI50: 0.0755 µM
  TGI: 0.222 µM
[9]
  GI50: 0.222 µM
  TGI: 0.514 µM
[2]
  GI50: 0.499 µM
  TGI: 2.3 µM
[3]
  GI50: 0.225 µM
  TGI: 0.521 µM
[4]
  GI50: 0.16 µM
  TGI: 0.407 µM
[10]
  GI50: 0.155 µM
  TGI: 0.364 µM
[5]
  GI50: 0.211 µM
  TGI: 0.503 µM
[6]
  GI50: 0.623 µM
  TGI: 1.85 µM
[7]
  GI50: 0.264 µM
  TGI: 0.644 µM
[8]
  GI50: 0.154 µM
  TGI: 0.295 µM

## C[C@H]1CC[C@@]2(NC1)O[C@H]1C[C@H]3[C@@H]4CC[C@H]5C[C@@H](O)CC[C@]5(C)[C@H]4CC[C@]3(C)[C@H]1[C@@H]2C
[1]
  GI50: 33.3 µM
  TGI: 50 µM and > 100 µM
[9]
  GI50: 42.5 µM
  TGI: 50 µM and > 100 µM
[2]
  TGI: > 100 µM
[3]
  GI50: 12.3 µM
  TGI: 24.5 µM and > 100 µM
[4]
  GI50: 12.9 µM
  TGI: 36.8 µM and > 100 µM
[10]
  GI50: 13.6 µM
  TGI: 29.3 µM and > 100 µM
[5]
  GI50: 10.7 µM
  TGI: 23.9 µM and > 100 µM
[6]
  GI50: 22.7 µM
  TGI: 50 µM and > 100 µM
[7]
  GI50: 12.3 µM
  TGI: 50 µM and > 100 µM
[8]
  GI50: 14.2 µM
  TGI: 44.6 µM and > 100 µM

## COc1cc2nc(N3CCCC3)nc(NCc3ccccc3)c2cc1OC
[1]
  GI50: 1.45 µM
  TGI: 3.14 µM
[9]
  GI50: 2.07 µM
  TGI: 4.33 µM
[2]
  GI50: 2.36 µM
  TGI: 14 µM
[3]
  GI50: 3.66 µM
  TGI: 16.2 µM
[4]
  GI50: 1.71 µM
  TGI: 4.21 µM
[10]
  GI50: 2.14 µM
  TGI: 4.96 µM
[5]
  GI50: 2.26 µM
  TGI: 5.13 µM
[6]
  GI50: 14 µM
  TGI: 27.4 µM
[7]
  GI50: 1.87 µM
  TGI: 4.29 µM
[8]
  GI50: 1.38 µM
  TGI: 3.21 µM

## CC1=C(c2cccc(O)c2)[C@H](c2ccc(OCCN3CC(CF)C3)cc2)Oc2ccc(O)cc21
[1]
  GI50: 6.34 µM
  TGI: 23.1 µM
[9]
  GI50: 4.39 µM
  TGI: 22.2 µM
[2]
  GI50: 2.52 µM
  TGI: 13.8 µM
[3]
  GI50: 4.42 µM
  TGI: 16.6 µM
[4]
  GI50: 0.0194 µM
  TGI: 13.4 µM
[10]
  GI50: 16 µM
  TGI: 32.8 µM
[5]
  GI50: 7.2 µM
  TGI: 20.9 µM
[6]
  GI50: 6.26 µM
  TGI: 20.6 µM
[7]
  GI50: 0.0747 µM
  TGI: 19.9 µM
[8]
  GI50: 3.56 µM
  TGI: 16 µM

## CN1CCN(C(=O)C(C)(C)c2ccc(C(=O)Nc3cn4cc(-c5ccncc5)ccc4n3)cc2)CC1
[1]
  GI50: 0.289 µM
[9]
  GI50: 0.371 µM
  TGI: 3.55 µM
[2]
  GI50: 0.366 µM
  TGI: 7.11 µM
[3]
  GI50: 0.22 µM
  TGI: 6 µM
[4]
  GI50: 0.282 µM
  TGI: > 100 µM
[10]
  GI50: 0.22 µM
  TGI: 13.4 µM
[5]
  GI50: 0.316 µM
  TGI: 1.62 µM
[6]
  GI50: 0.275 µM
  TGI: 17.5 µM
[7]
  GI50: 0.201 µM
  TGI: > 100 µM
[8]
  GI50: 0.272 µM
  TGI: 1.3 µM

## C[C@@H]1[C@H](C)N1CC(O)Cn1ccnc1[N+](=O)[O-] (some centres undefined)
[1]
  TGI: > 100 µM
[9]
  TGI: > 100 µM
[3]
  TGI: > 100 µM
[4]
  TGI: > 100 µM
[10]
  TGI: > 100 µM
[5]
  TGI: > 100 µM
[6]
  TGI: > 100 µM
[7]
  TGI: > 100 µM
[8]
  TGI: > 100 µM
